Assay results published in PubChem BioAssay (NCI).
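Values below derive from 48-hour exposures of cells grown in 96-well plates, with endpoints linearly interpolated between the two concentrations bracketing the appropriate inhibition level. Here, GI50 denotes the concentration required for 50% inhibition of growth. TGI denotes the concentration required for complete inhibition of growth.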

Tests used:
Assay in all cases: NCI tumour cell line growth inhibition, 48 h
[1] = tested on: 786-0 renal
[2] = tested on: A498 renal
[3] = tested on: A549 NSCLC
[4] = tested on: ACHN renal
[5] = tested on: BT-549 breast
[6] = tested on: CAKI-1 renal
[7] = tested on: CCRF-CEM leukemia
[8] = tested on: COLO 205 colon
[9] = tested on: DU-145 prostate
[10] = tested on: EKVX NSCLC
[11] = tested on: HCC-2998 colon
[12] = tested on: HCT-116 colon
[13] = tested on: HCT-15 colon
[14] = tested on: HL-60(TB) leukemia
[15] = tested on: HOP-62 NSCLC
[16] = tested on: HOP-92 NSCLC
[17] = tested on: HS 578T breast
[18] = tested on: HT29 colon
[19] = tested on: IGROV1 ovarian
[20] = tested on: K-562 leukemia
[21] = tested on: KM12 colon
[22] = tested on: LOX IMVI melanoma
[23] = tested on: M14 melanoma
[24] = tested on: MALME-3M melanoma
[25] = tested on: MCF7 breast
[26] = tested on: MDA-MB-231 breast
[27] = tested on: MDA-MB-435
[28] = tested on: MOLT-4 leukemia
[29] = tested on: NCI-H226 lung
[30] = tested on: NCI-H23 lung
[31] = tested on: NCI-H460 lung
[32] = tested on: NCI/ADR-RES ovarian
[33] = tested on: OVCAR-3 ovarian
[34] = tested on: OVCAR-4 ovarian
[35] = tested on: PC-3 prostate
[36] = tested on: RPMI-8226 leukemia
[37] = tested on: SF-268 CNS
[38] = tested on: SF-295 CNS
[39] = tested on: SF-539 CNS
[40] = tested on: SK-MEL-28 melanoma
[41] = tested on: SK-MEL-5 melanoma
[42] = tested on: SK-OV-3 ovarian
[43] = tested on: SN12C renal
[44] = tested on: SNB-19 CNS
[45] = tested on: SNB-75 CNS
[46] = tested on: SW-620 colon
[47] = tested on: T-47D breast
[48] = tested on: TK-10 renal
[49] = tested on: U251 CNS
[50] = tested on: UACC-62 melanoma
[51] = tested on: NCI-H522 lung
[52] = tested on: OVCAR-8 ovarian
[53] = tested on: RXF 393 renal
[54] = tested on: SK-MEL-2 melanoma
[55] = tested on: SR leukemia
[56] = tested on: UACC-257 melanoma
[57] = tested on: UO-31 renal

Compound `CCN(CCNc1ccc(C)c2sc3cc(Cl)ccc3c(=O)c12)CC(C)O` (configuration not stated) has a GI50 [1] of 1.44 µM, a TGI [1] of 2.75 µM and a GI50 [2] of 1490 nM. For the same compound, the TGI [2] was 2.87 µM, the GI50 [3] was 1850 nM and the TGI [3] was 3.45 µM. For the same compound, the GI50 [4] was 1850 nM, the TGI [4] was 3.48 µM and the GI50 [5] was 2.71 µM. The TGI [5] was 10.1 µM, the GI50 [6] was 643 nM and the TGI [6] was 2.49 µM. For the same compound, the GI50 [7] was 2020 nM, the TGI [7] was 4.27 µM and the GI50 [8] was 1720 nM. The TGI [8] was 3.24 µM, the GI50 [9] was 3.87 µM and the TGI [9] was 18.2 µM. For the same compound, the GI50 [10] was 2280 nM, the TGI [10] was 7.3 µM and the GI50 [11] was 2180 nM. The TGI [11] was 3.62 µM, the GI50 [12] was 1660 nM and the TGI [12] was 3.02 µM. The GI50 [13] was 2330 nM, the TGI [13] was 5.85 µM and the GI50 [14] was 1700 nM. The TGI [14] was 3.35 µM, the GI50 [15] was 1520 nM and the TGI [15] was 2860 nM. It also gave a GI50 [16] of 1610 nM, a TGI [16] of 4.28 µM and a GI50 [17] of 2230 nM. It also gave a TGI [17] of 4.35 µM, a GI50 [18] of 1650 nM and a TGI [18] of 3.17 µM. For the same compound, the GI50 [19] was 1250 nM, the TGI [19] was 2.78 µM and the GI50 [20] was 1820 nM. It also gave a TGI [20] of 3.41 µM, a GI50 [21] of 1840 nM and a TGI [21] of 3.88 µM. For the same compound, the GI50 [22] was 1850 nM, the TGI [22] was 3.72 µM and the GI50 [23] was 1750 nM. It also gave a TGI [23] of 3.14 µM, a GI50 [24] of 1360 nM and a TGI [24] of 2770 nM. The GI50 [25] was 1500 nM, the TGI [25] was 3.01 µM and the GI50 [26] was 1990 nM. It also gave a TGI [26] of 4.17 µM, a GI50 [27] of 1640 nM and a TGI [27] of 3.27 µM. For the same compound, the GI50 [28] was 1620 nM, the TGI [28] was 3.49 µM and the GI50 [29] was 2180 nM. For the same compound, the TGI [29] was 4.72 µM, the GI50 [30] was 2530 nM and the TGI [30] was 4.77 µM. The GI50 [31] was 1780 nM, the TGI [31] was 3.34 µM and the GI50 [32] was 2070 nM. For the same compound, the TGI [32] was 4.08 µM, the GI50 [33] was 3.62 µM and the TGI [33] was 14.3 µM. For the same compound, the GI50 [34] was 4.92 µM, the TGI [34] was 24.9 µM and the GI50 [35] was 1740 nM. It also gave a TGI [35] of 3.31 µM, a GI50 [36] of 1710 nM and a TGI [36] of 3.67 µM. For the same compound, the GI50 [37] was 3290 nM, the TGI [37] was 16 µM and the GI50 [38] was 1670 nM. For the same compound, the TGI [38] was 3.72 µM, the GI50 [39] was 1590 nM and the TGI [39] was 2.95 µM. The GI50 [40] was 1910 nM, the TGI [40] was 3.4 µM and the GI50 [41] was 1620 nM. For the same compound, the TGI [41] was 2.98 µM, the GI50 [42] was 1760 nM and the TGI [42] was 3.44 µM. The GI50 [43] was 2760 nM, the TGI [43] was 10.5 µM and the GI50 [44] was 1650 nM. It also gave a TGI [44] of 3.66 µM, a GI50 [45] of 1750 nM and a TGI [45] of 3.57 µM. The GI50 [46] was 1800 nM, the TGI [46] was 3.51 µM and the GI50 [47] was 1760 nM. The TGI [47] was 4.14 µM, the GI50 [48] was 1510 nM and the TGI [48] was 2.91 µM. For the same compound, the GI50 [49] was 1940 nM, the TGI [49] was 4.24 µM and the GI50 [50] was 1820 nM. For the same compound, the TGI [50] was 3.44 µM.

`CCN1CCN(CC(=O)Nc2nc3ccc(NCc4ccc(Cl)cc4)cc3s2)CC1` gave a GI50 [1] of 6.38 µM, a TGI [1] of 20.1 µM and a GI50 [2] of 4090 nM. It also gave a TGI [2] of 17 µM, a GI50 [3] of 2760 nM and a TGI [3] of 8.01 µM. For the same compound, the GI50 [4] was 2220 nM, the TGI [4] was 5.02 µM and the GI50 [5] was 10.6 µM. It also gave a TGI [5] of 25 µM, a GI50 [6] of 2100 nM and a TGI [6] of 5.19 µM. The GI50 [7] was 2430 nM, the TGI [7] was 8.22 µM and the GI50 [8] was 1820 nM. For the same compound, the TGI [8] was 3.5 µM, the GI50 [9] was 7.31 µM and the TGI [9] was over 100 µM. For the same compound, the GI50 [10] was 3290 nM, the TGI [10] was over 100 µM and the GI50 [12] was 3210 nM. It also gave a TGI [12] of 11.7 µM, a GI50 [13] of 1950 nM and a TGI [13] of 4.66 µM. It also gave a GI50 [14] of 1950 nM, a TGI [14] of 3.87 µM and a GI50 [16] of 1120 nM. It also gave a TGI [16] of 2.77 µM, a GI50 [17] of 2590 nM and a TGI [17] of 9.09 µM. For the same compound, the GI50 [18] was 2020 nM, the TGI [18] was 4.61 µM and the GI50 [19] was 3370 nM. The TGI [19] was 14.9 µM, the GI50 [20] was 1630 nM and the TGI [20] was 4.14 µM. For the same compound, the GI50 [21] was 3730 nM, the TGI [21] was over 100 µM and the GI50 [22] was 1680 nM. The TGI [22] was 3.17 µM, the GI50 [23] was 1860 nM and the TGI [23] was 3.63 µM. The GI50 [24] was 1670 nM, the TGI [24] was 3200 nM and the GI50 [26] was 1890 nM. It also gave a TGI [26] of 4.02 µM, a GI50 [27] of 1900 nM and a TGI [27] of 3.81 µM. The GI50 [28] was 2230 nM, the TGI [28] was 5.78 µM and the GI50 [30] was 3250 nM. It also gave a TGI [30] of over 100 µM, a GI50 [31] of 2180 nM and a TGI [31] of 4.69 µM. The GI50 [51] was 2200 nM, the TGI [51] was 5.19 µM and the GI50 [32] was 2880 nM. For the same compound, the TGI [32] was over 100 µM, the GI50 [33] was 3.16 µM and the TGI [33] was 16.8 µM. For the same compound, the GI50 [34] was 5.25 µM, the TGI [34] was 90.6 µM and the GI50 [52] was 4.59 µM. The TGI [52] was over 100 µM, the GI50 [36] was 1600 nM and the TGI [36] was 4.04 µM. For the same compound, the GI50 [53] was 1540 nM, the TGI [53] was 3.05 µM and the GI50 [37] was 2430 nM. It also gave a TGI [37] of 6.29 µM, a GI50 [39] of 1690 nM and a TGI [39] of 3.18 µM. It also gave a GI50 [54] of 2020 nM, a TGI [54] of 3.98 µM and a GI50 [40] of 1800 nM. For the same compound, the TGI [40] was 3.31 µM, the GI50 [41] was 1670 nM and the TGI [41] was 3.07 µM. For the same compound, the GI50 [42] was 2950 nM, the TGI [42] was 7.98 µM and the GI50 [43] was 2940 nM. The TGI [43] was 11.9 µM, the GI50 [44] was 3120 nM and the TGI [44] was 10.7 µM. It also gave a GI50 [45] of 1880 nM, a TGI [45] of 4.5 µM and a GI50 [55] of 2780 nM. For the same compound, the TGI [55] was 17 µM, the GI50 [46] was 2100 nM and the TGI [46] was 4.78 µM. For the same compound, the GI50 [47] was 1940 nM, the TGI [47] was 5.8 µM and the GI50 [48] was 2840 nM. It also gave a TGI [48] of 7.45 µM, a GI50 [49] of 2000 nM and a TGI [49] of 4.03 µM. For the same compound, the GI50 [56] was 2650 nM, the TGI [56] was 6.86 µM and the GI50 [50] was 2080 nM. It also gave a TGI [50] of 4.03 µM, a GI50 [57] of 1620 nM and a TGI [57] of 3.19 µM.
